Counter-ions that a name gives are not always drawn.
Target: T1, Human Polθ polymerase domain (aa1820-2590) (Homo sapiens, UniProt O75417)
T1 construct: Human Polθ polymerase domain (aa1820-2590) was expressed in E. Coli; made in house; host or cells: E. coli
T1 sequence (O75417 1820-2590): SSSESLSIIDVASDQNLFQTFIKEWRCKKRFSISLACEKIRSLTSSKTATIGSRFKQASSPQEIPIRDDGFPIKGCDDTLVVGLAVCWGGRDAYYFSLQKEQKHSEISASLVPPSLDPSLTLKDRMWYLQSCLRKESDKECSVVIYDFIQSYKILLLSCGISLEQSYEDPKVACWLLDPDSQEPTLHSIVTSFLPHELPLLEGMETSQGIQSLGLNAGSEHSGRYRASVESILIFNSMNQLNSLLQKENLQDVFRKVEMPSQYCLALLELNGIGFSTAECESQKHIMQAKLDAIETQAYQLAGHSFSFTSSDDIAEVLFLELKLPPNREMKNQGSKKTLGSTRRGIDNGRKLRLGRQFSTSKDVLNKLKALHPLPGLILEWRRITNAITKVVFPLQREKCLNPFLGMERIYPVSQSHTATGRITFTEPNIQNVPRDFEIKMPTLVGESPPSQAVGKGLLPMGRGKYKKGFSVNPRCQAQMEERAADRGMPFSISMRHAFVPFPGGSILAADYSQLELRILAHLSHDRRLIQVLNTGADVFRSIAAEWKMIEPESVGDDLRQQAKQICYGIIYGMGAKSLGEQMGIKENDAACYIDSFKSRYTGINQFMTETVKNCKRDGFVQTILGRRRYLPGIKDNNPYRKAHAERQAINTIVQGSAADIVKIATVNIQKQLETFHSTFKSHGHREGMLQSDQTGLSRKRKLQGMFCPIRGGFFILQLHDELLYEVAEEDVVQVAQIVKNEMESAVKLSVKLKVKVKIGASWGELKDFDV
Assay: Polθ Polymerase Domain WT KI Assay (PicoGreen)
Type: biochemical
Settings: 100 nM DNA substrate, 0.156 nM Polθ, initial rates vs inhibitor concentration
Experimental: A PicoGreen assay was used to measure the KI values of reversible compounds that inhibit the activity of Polθ in vitro.
Human Polθ polymerase domain (aa1820-2590) was expressed in E. Coli, purified, aliquoted and stored at −80° C. until required. Polθ substrate was generated from a 1.2:1 mix of DNA II Short to DNA II Long to give a final concentration of […] substrate in annealing buffer (20 mM Tris pH 7.5, 50 mM NaCl). The substrate was heated in 50 mL aliquots to 95° C. in a heating block for 5 min before the heating block switched off, the reaction left to cool to rt and stored at −20° C. until required.
Assay measurements were performed with 1× buffer comprising 25 mM Tris pH 7.5, 12.5 mM NaCl, […], 5% (v/v) glycerol, 0.01% v/v Triton x-100, 0.1 mg/ml BSA, 1 mM DTT. […] 100 nL of 23×1:1.5-fold serial dilutions and a DMSO only control were dispensed using the Tecan dispenser into Greiner 384 well black low volume plates (product code 784076). DMSO concentration was maintained at 1% of the final assay volume by back filling with DMSO.
To stop the reaction, 5 μL of a solution containing 25 mM Tris-HCl PH 7.5 and 20 mM EDTA was added at […] (t=0, 15, 30, 60, 90, 120, 150, 180 mins) using the Tempest's time delay function. The plates were covered during the time course to prevent evaporation. After completing the assay, 5 μL of detection reagent (25 mM Tris-HCl pH 7.5 and 2.5% (v/v) PicoGreen) was dispensed into the wells using a Tempest liquid handler (Formulatrix) and plates subsequently read on the CLARIOstar Plus (BMG Labtech) using the default optical settings for fluorescein and the auto gain/focus settings.
All data analysis was carried out using GraphPad Prism V.8 (GraphPad Software Inc, San Diego, CA). Time course data for each inhibitor concentration were fitted to the linear regression model in GraphPad Prism. Any time points where the control (DMSO only) reaction was no longer linear were excluded from the analysis. The initial rates (slopes) obtained from the linear regression were then plotted against inhibitor concentration and fitted to an inhibitor vs. response variable slope (four parameter) model on GraphPad Prism to determine the KI values.

Ki [nM] | Structure (SMILES)
1.13 | Cc1cc(C(F)(F)F)cc(N2C(=O)C[C@@H]3CN(CCN4C[C@@H]5C[C@H]4CN5)c4c(C)cccc4N(C)C(=O)[C@H]32)n1 [Example 59, (3aR,11aS)-5-(2-((1S,4S)-2,5-Diazabicyclo[2.2.1]heptan-2-yl)ethyl)-6,10-dimethyl-1-(6-methyl-4-(trifluoromethyl)pyridin-2-yl)-1,3a,4,5,10,11a-hexahydro-2H-benzo[b]pyrrolo[2,3-f][1,4]diazocine-2,11(3H)-dione dihydrochloride]
0.457 | Cc1cc(C(F)(F)F)cc(N2C(=O)C[C@@H]3CN(CCN4CCN(C)C[C@@H]4C)c4c(C)cccc4N(C)C(=O)[C@H]32)n1 [Example 49, (3aR,11aS)-5-(2-((S)-2,4-Dimethylpiperazin-1-yl)ethyl)-6,10-dimethyl-1-(6-methyl-4-(trifluoromethyl)pyridin-2-yl)-1,3a,4,5,10,11a-hexahydro-2H-benzo[b]pyrrolo[2,3-f][1,4]diazocine-2,11(3H)-dione dihydrochloride]
1.08 | Cc1cc(C(F)(F)F)cc(N2C(=O)C[C@@H]3CN(Cc4cccnc4)c4c(C)cccc4N(C)C(=O)[C@H]32)n1 [Example 115, (3aR,11aS)-6,10-Dimethyl-1-(6-methyl-4-(trifluoromethyl)pyridin-2-yl)-5-(pyridin-3-ylmethyl)-1,3a,4,5,10,11a-hexahydro-2H-benzo[b]pyrrolo[2,3-f][1,4]diazocine-2,11(3H)-dione]
1.23 | Cc1cc(C(F)(F)F)cc(N2C(=O)C[C@@H]3CN(CCN4CCN(CCO)CC4)c4c(C)cccc4N(C)C(=O)[C@H]32)n1 [Example 53, (3aR,11aS)-5-(2-(4-(2-Hydroxyethyl)piperazin-1-yl)ethyl)-6,10-dimethyl-1-(6-methyl-4-(trifluoromethyl)pyridin-2-yl)-1,3a,4,5,10,11a-hexahydro-2H-benzo[b]pyrrolo[2,3-f][1,4]diazocine-2,11(3H)-dione]
1.99 | Cc1cc(C(F)(F)F)cc(N2C(=O)C[C@@H]3CN(CC(C)O)c4c(Cl)cccc4N(C)C(=O)[C@H]32)n1 (mixture of isomers) [Example 131a, (3aR,11aS)-6-chloro-5-((S/R)-2-hydroxypropyl)-10-methyl-1-(6-methyl-4-(trifluoromethyl)pyridin-2-yl)-1,3a,4,5,10,11a-hexahydro-2H-benzo[b]pyrrolo[2,3-f][1,4]diazocine-2,11(3H)-dione]
86.3 | COc1cccc(N2C[C@H]3CC(=O)N(c4cc(C(F)(F)F)cc(C)n4)[C@@H]3C(=O)N(C)c3cccc(F)c32)n1 [Example 141, (3aR,11aS)-6-Fluoro-5-(6-methoxypyridin-2-yl)-10-methyl-1-(6-methyl-4-(trifluoromethyl)pyridin-2-yl)-1,3a,4,5,10,11a-hexahydro-2H-benzo[b]pyrrolo[2,3-f][1,4]diazocine-2,11(3H)-dione]
3.82 | Cc1cc(C(F)(F)F)cc(N2C(=O)C[C@@H]3CN(CCN4CCC(O)CC4)c4c(Cl)cccc4N(C)C(=O)[C@H]32)n1 [Example 34, (3aR,11aS)-6-Chloro-5-(2-(4-hydroxypiperidin-1-yl)ethyl)-10-methyl-1-(6-methyl-4-(trifluoromethyl)pyridin-2-yl)-1,3a,4,5,10,11a-hexahydro-2H-benzo[b]pyrrolo[2,3-f][1,4]diazocine-2,11(3H)-dione]
0.605 | Cc1cc(C(F)(F)F)cc(N2C(=O)C[C@@H]3CN(CCN4CCN(C)[C@H](C)C4)c4c(C)cccc4N(C)C(=O)[C@H]32)n1 [Example 47, (3aR,11aS)-5-(2-((R)-3,4-Dimethylpiperazin-1-yl)ethyl)-6,10-dimethyl-1-(6-methyl-4-(trifluoromethyl)pyridin-2-yl)-1,3a,4,5,10,11a-hexahydro-2H-benzo[b]pyrrolo[2,3-f][1,4]diazocine-2,11(3H)-dione dihydrochloride]
0.777 | Cc1cc(C(F)(F)F)cc(N2C(=O)C[C@@H]3CN(CCN4C[C@H]5C[C@@H]4CN5)c4c(C)cccc4N(C)C(=O)[C@H]32)n1 [Example 58, (3aR,11aS)-5-(2-((1R,4R)-2,5-Diazabicyclo[2.2.1]heptan-2-yl)ethyl)-6,10-dimethyl-1-(6-methyl-4-(trifluoromethyl)pyridin-2-yl)-1,3a,4,5,10,11a-hexahydro-2H-benzo[b]pyrrolo[2,3-f][1,4]diazocine-2,11(3H)-dione dihydrochloride]
8.33 | C=CCN1C[C@H]2CC(=O)N(c3cc(C(F)(F)F)cc(C)n3)[C@@H]2C(=O)N(C)c2cccc(F)c21 [Example 4, (3aR,11aS)-5-Allyl-6-fluoro-10-methyl-1-(6-methyl-4-(trifluoromethyl)pyridin-2-yl)-1,3a,4,5,10,11a-hexahydro-2H-benzo[b]pyrrolo[2,3-f][1,4]diazocine-2,11(3H)-dione]
10.2 | Cc1cc(C(F)(F)F)cc(N2C(=O)C[C@@H]3CN(CC(C)O)c4c(F)cccc4N(C)C(=O)[C@H]32)n1 (single isomer, unassigned) [Example 130b]
0.757 | Cc1cc(C(F)(F)F)cc(N2C(=O)C[C@@H]3CN(CCN4CC5(CCO5)C4)c4c(C)cccc4N(C)C(=O)[C@H]32)n1 [Example 14, (3aR,11aS)-5-(2-(1-Oxa-6-azaspiro[3.3]heptan-6-yl)ethyl)-6,10-dimethyl-1-(6-methyl-4-(trifluoromethyl)pyridin-2-yl)-1,3a,4,5,10,11a-hexahydro-2H-benzo[b]pyrrolo[2,3-f][1,4]diazocine-2,11(3H)-dione]
3.37 | Cc1cc(C(F)(F)F)cc(N2C(=O)C[C@@H]3CN(CC4CCCCN4C)c4c(Cl)cccc4N(C)C(=O)[C@H]32)n1 (single isomer, unassigned) [Example 117a]
2 | Cc1cc(C(F)(F)F)cc(N2C(=O)C[C@@H]3CN(CCN4CCN(C)CC4)c4c(Cl)cccc4N(C)C(=O)[C@H]32)n1 [Example 7, (3aR,11aS)-6-Chloro-10-methyl-1-(6-methyl-4-(trifluoromethyl)pyridin-2-yl)-5-(2-(4-methylpiperazin-1-yl)ethyl)-1,3a,4,5,10,11a-hexahydro-2H-benzo[b]pyrrolo[2,3-f][1,4]diazocine-2,11(3H)-dione]
16.7 | Cc1cc(C(F)(F)F)cc(N2C(=O)C[C@@H]3CN(CCO)c4c(F)cccc4N(C)C(=O)[C@H]32)n1 [Example 18, (3aR,11aS)-6-Fluoro-5-(2-hydroxyethyl)-10-methyl-1-(6-methyl-4-(trifluoromethyl)pyridin-2-yl)-1,3a,4,5,10,11a-hexahydro-2H-benzo[b]pyrrolo[2,3-f][1,4]diazocine-2,11(3H)-dione]
1.21 | CC(=O)N1CCN(CCN2C[C@H]3CC(=O)N(c4cc(C(F)(F)F)cc(C)n4)[C@@H]3C(=O)N(C)c3cccc(C)c32)[C@@H](C)C1 [Example 74, (3aR,11aS)-5-(2-((S)-4-Acetyl-2-methylpiperazin-1-yl)ethyl)-6,10-dimethyl-1-(6-methyl-4-(trifluoromethyl)pyridin-2-yl)-1,3a,4,5,10,11a-hexahydro-2H-benzo[b]pyrrolo[2,3-f][1,4]diazocine-2,11(3H)-dione]
1.07 | Cc1cc(C(F)(F)F)cc(N2C(=O)C[C@@H]3CN(CCN4CCS(=O)(=O)CC4)c4c(C)cccc4N(C)C(=O)[C@H]32)n1 [Example 68, (3aR,11aS)-5-(2-(1,1-Dioxidothiomorpholino)ethyl)-6,10-dimethyl-1-(6-methyl-4-(trifluoromethyl)pyridin-2-yl)-1,3a,4,5,10,11a-hexahydro-2H-benzo[b]pyrrolo[2,3-f][1,4]diazocine-2,11(3H)-dione]

— US20260124214A1, “HETEROCYCLIC COMPOUNDS FOR USE IN THE TREATMENT OF CANCER” (ARTIOS PHARMA LIMITED, priority 2021, published 2026)
